This is an account of results in patent US20260295053A1, “COMPOUNDS FOR DEGRADATION AND INHIBITION OF KRAS (G12D) PROTEIN” (Shenzhen Ionova Life Science Co., Ltd., priority 2023, published 2026).

The target in one assay is T1, KRAS (G12D) (Homo sapiens, UniProt P01116, G12D).
T1 construct: in-cell western with KRAS G12D antibody after 24 h
The assay can be described thus: KRAS (G12D) cellular degradation assay in AsPC-1 cells. The note with it: 24 hours, antibody fluorescence (Odyssey CLX), DC50 half-maximal degradation concentration. The format is cell-based. The gist of the method:
(§1)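 AsPC-1 cells were seeded at 22,000/well for degradation and 3,500/well for proliferation. Compounds in 1:3 dilutions ([…] to 1.5 nM final) ran 24 h for degradation, read by in-cell immunofluorescence of KRAS G12D normalised to β-actin, and 6 days for proliferation (CellTiter Glo luminescence). DC50/IC50 came from dose-response fits.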

The test system of a further assay is AsPC-1 cells. Put plainly: AsPC-1 cell proliferation assay (CellTiter Glo). It counts as cell-based. The following applies: Homo sapiens, ASPC1, 144 h, 6 days. The gist of the method:
as §1
(In general: Cellular ATP, detected with luciferase, serves as a proxy for viable cell number.)

Broadly, the DC50 is the concentration giving 50% degradation. Read a low DC50 as degradation at low concentration. Usually IC50 stands for the concentration needed to halve the response being measured. A higher IC50 goes with weaker potency.

T1 sequence (P01116 1-188 isoform P01116-2 G12D): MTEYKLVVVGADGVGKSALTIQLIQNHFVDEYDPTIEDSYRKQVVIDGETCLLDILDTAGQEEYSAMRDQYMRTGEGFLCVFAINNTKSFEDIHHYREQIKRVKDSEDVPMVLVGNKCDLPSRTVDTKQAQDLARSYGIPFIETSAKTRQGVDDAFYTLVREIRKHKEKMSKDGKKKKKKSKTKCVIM

`CO[C@@H](C)COc1nc(N2C[C@@H]3C[C@H]2CN3)c2cc(C3CC3)c(-c3c(C)c(F)cc4[nH]ncc34)c(OCc3ccc(-c4cn([C@H](C(=O)N5C[C@H](O)C[C@H]5C(=O)N[C@H](C#Cc5cccc6ncsc56)CO)C(C)C)nn4)cc3)c2n1` [Example 92, (2S,4R)-1-((2S)-2-(4-(4-(((4-((1S,4S)-2,5-diazabicyclo[2.2.1]heptan-2-yl)-6-cyclopropyl-7-(6-fluoro-5-methyl-1H-indazol-4-yl)-2-((S)-2-methoxypropoxy)quinazolin-8-yl)oxy)methyl)phenyl)-1H-1,2,3-triazol-1-yl)-3-methylbutanoyl)-N—((R)-4-(benzo[d]thiazol-7-yl)-1-hydroxybut-3-yn-2-yl)-4-hydroxypyrrolidine-2-carboxamide]: the half-maximal degradation concentration (DC50) at KRAS (G12D) was < 10 nM. Further, in the assay on AsPC-1 cells, the IC50 was < 10 nM.
As for `CCn1nccc1-c1ccc([C@@H](NC(=O)[C@@H]2C[C@@H](O)CN2C(=O)[C@H](C(C)C)n2cc(-c3ccc(COc4c(-c5c(C)c(F)cc6[nH]ncc56)c(C5CC5)cc5c(N6C[C@@H]7C[C@H]6CN7)nc(OC6CC7COCC7C6)nc45)cc3)nn2)[C@H](C)O)cc1` (stereo partly drawn) [Example 115, (2S,4R)-1-((2S)-2-(4-(4-(((4-((1S,4S)-2,5-diazabicyclo[2.2.1]heptan-2-yl)-6-cyclopropyl-7-(6-fluoro-5-methyl-1H-indazol-4-yl)-2-((hexahydro-1H-cyclopenta[c]furan-5-yl)oxy)quinazolin-8-yl)oxy)methyl)phenyl)-1H-1,2,3-triazol-1-yl)-3-methylbutanoyl)-N-((1R,2S)-1-(4-(1-ethyl-1H-pyrazol-5-yl)phenyl)-2-hydroxypropyl)-4-hydroxypyrrolidine-2-carboxamide], at KRAS (G12D), the DC50 is < 10 nM. For the same compound, the IC50 in the assay with AsPC-1 cells is < 10 nM.
For the compound `CCn1nccc1-c1ccc([C@@H](NC(=O)[C@@H]2C[C@@H](O)CN2C(=O)[C@H](C(C)C)n2cc(-c3ccc(COc4c(-c5c(C)c(F)cc6[nH]ncc56)c(C5CC5)cc5c(N(C)[C@H]6CCNC6)nc(O[C@H]6C[C@H](OC)C6)nc45)cc3)nn2)[C@H](C)O)cc1` [Example 170, (2S,4R)-1-((2S)-2-(4-(4-(((6-cyclopropyl-7-(6-fluoro-5-methyl-1H-indazol-4-yl)-2-((1r,3S)-3-methoxycyclobutoxy)-4-(methyl((S)-pyrrolidin-3-yl)amino)quinazolin-8-yl)oxy)methyl)phenyl)-1H-1,2,3-triazol-1-yl)-3-methylbutanoyl)-N-((1R,2S)-1-(4-(1-ethyl-1H-pyrazol-5-yl)phenyl)-2-hydroxypropyl)-4-hydroxypyrrolidine-2-carboxamide], at KRAS (G12D), the DC50 was < 10 nM. In the assay on AsPC-1 cells, the half-maximal inhibitory concentration (IC50) is < 10 nM.
Consider `CCn1nccc1-c1ccc([C@H](CO)NC(=O)[C@@H]2C[C@@H](O)CN2C(=O)[C@H](C(C)C)n2cc(-c3ccc(COc4c(-c5c(C)c(F)cc6[nH]ncc56)c(C5CC5)cc5c(N6C[C@@H]7C[C@H]6CN7)nc(N6CCC(OC)C6)nc45)cc3)nn2)cc1` (stereo partly drawn) [Example 112, (2S,4R)-1-((2S)-2-(4-(4-(((4-((1S,4S)-2,5-diazabicyclo[2.2.1]heptan-2-yl)-6-cyclopropyl-7-(6-fluoro-5-methyl-1H-indazol-4-yl)-2-(3-methoxypyrrolidin-1-yl)quinazolin-8-yl)oxy)methyl)phenyl)-1H-1,2,3-triazol-1-yl)-3-methylbutanoyl)-N—((R)-1-(4-(1-ethyl-1H-pyrazol-5-yl)phenyl)-2-hydroxyethyl)-4-hydroxypyrrolidine-2-carboxamide], for which, at KRAS (G12D), the half-maximal degradation concentration (DC50) was < 10 nM. The IC50 in the assay with AsPC-1 cells was < 10 nM.
With `CO[C@@H](C)COc1nc(N2C[C@@H]3C[C@H]2CN3)c2cc(C3CC3)c(-c3c(C)c(F)cc4[nH]ncc34)c(OCc3ccc(-c4cn([C@H](C(=O)N5C[C@H](O)C[C@H]5C(=O)N[C@H](c5ccc(-c6scnc6C)cc5)[C@H](C)O)C(C)C)nn4)cc3)c2n1` [Example 82, (2S,4R)-1-((2S)-2-(4-(4-(((4-((1S,4S)-2,5-diazabicyclo[2.2.1]heptan-2-yl)-6-cyclopropyl-7-(6-fluoro-5-methyl-1H-indazol-4-yl)-2-((S)-2-methoxypropoxy)quinazolin-8-yl)oxy)methyl)phenyl)-1H-1,2,3-triazol-1-yl)-3-methylbutanoyl)-4-hydroxy-N-((1R,2S)-2-hydroxy-1-(4-(4-methylthiazol-5-yl)phenyl)propyl)pyrrolidine-2-carboxamide], the 50% degradation concentration (DC50) at KRAS (G12D) was < 10 nM. In addition, the half-maximal inhibitory concentration (IC50) in the assay with AsPC-1 cells was < 10 nM.
In the case of `Cc1ncsc1-c1ccc([C@H](CO)NC(=O)[C@@H]2C[C@@H](O)CN2C(=O)[C@H](C(C)C)n2cc(-c3ccc(COc4c(-c5c(C)c(F)cc6[nH]ncc56)c(C5CCC5)cc5c(N6C[C@@H]7C[C@H]6CN7)nc(OC6CCOCC6)nc45)cc3)nn2)cc1` [Example 94, (2S,4R)-1-((2S)-2-(4-(4-(((4-((1S,4S)-2,5-diazabicyclo[2.2.1]heptan-2-yl)-6-cyclobutyl-7-(6-fluoro-5-methyl-1H-indazol-4-yl)-2-((tetrahydro-2H-pyran-4-yl)oxy)quinazolin-8-yl)oxy)methyl)phenyl)-1H-1,2,3-triazol-1-yl)-3-methylbutanoyl)-4-hydroxy-N—((R)-2-hydroxy-1-(4-(4-methylthiazol-5-yl)phenyl)ethyl)pyrrolidine-2-carboxamide], at KRAS (G12D), the 50% degradation concentration (DC50) is < 10 nM. For the same compound, the IC50 with AsPC-1 cells is < 10 nM.
On KRAS (G12D), `CCn1nccc1-c1ccc([C@H](CO)NC(=O)[C@@H]2C[C@@H](O)CN2C(=O)[C@H](C(C)C)n2cc(-c3ccc(COc4c(-c5c(C)c(F)cc6[nH]ncc56)c(C5CC5)cc5c(N6CC7CCC(C6)N7)nc(OC6CCOCC6)nc45)cc3)nn2)cc1` [Example 35, (2S,4R)-1-((2S)-2-(4-(4-(((4-(3,8-diazabicyclo[3.2.1]octan-3-yl)-6-cyclopropyl-7-(6-fluoro-5-methyl-1H-indazol-4-yl)-2-((tetrahydro-2H-pyran-4-yl)oxy)quinazolin-8-yl)oxy)methyl)phenyl)-1H-1,2,3-triazol-1-yl)-3-methylbutanoyl)-N—((R)-1-(4-(1-ethyl-1H-pyrazol-5-yl)phenyl)-2-hydroxyethyl)-4-hydroxypyrrolidine-2-carboxamide] showed a half-maximal degradation concentration (DC50) of 10 to 100 nM. Further, the IC50 in the assay on AsPC-1 cells is < 10 nM.
`CCn1nccc1-c1ccc([C@@H](NC(=O)[C@@H]2C[C@@H](O)CN2C(=O)[C@H](C(C)C)n2cc(-c3ccc(COc4c(-c5c(C)c(F)cc6[nH]ncc56)c(C5CC5)cc5c(N6CCNCC[C@H]6C)nc(OC[C@H](C)OC)nc45)cc3)nn2)[C@H](C)O)cc1` [Example 201, (2S,4R)-1-((2S)-2-(4-(4-(((6-cyclopropyl-7-(6-fluoro-5-methyl-1H-indazol-4-yl)-2-((S)-2-methoxypropoxy)-4-((R)-7-methyl-1,4-diazepan-1-yl)quinazolin-8-yl)oxy)methyl)phenyl)-1H-1,2,3-triazol-1-yl)-3-methylbutanoyl)-N-((1R,2S)-1-(4-(1-ethyl-1H-pyrazol-5-yl)phenyl)-2-hydroxypropyl)-4-hydroxypyrrolidine-2-carboxamide]: on KRAS (G12D), the DC50 is < 10 nM. Besides, the IC50 in the assay with AsPC-1 cells was < 10 nM.
Take `CO[C@@H](C)COc1nc(N2C[C@@H]3C[C@H]2CN3)c2cc(C3CC3)c(-c3c(C)c(F)cc4[nH]ncc34)c(OCc3ccc(-c4cn([C@H](C(=O)N5C[C@H](O)C[C@H]5C(=O)N[C@H](C#Cc5cccc6nn(C)cc56)CO)C(C)C)nn4)cc3)c2n1` [Example 116, (2S,4R)-1-((2S)-2-(4-(4-(((4-((1S,4S)-2,5-diazabicyclo[2.2.1]heptan-2-yl)-6-cyclopropyl-7-(6-fluoro-5-methyl-1H-indazol-4-yl)-2-((S)-2-methoxypropoxy)quinazolin-8-yl)oxy)methyl)phenyl)-1H-1,2,3-triazol-1-yl)-3-methylbutanoyl)-4-hydroxy-N—((R)-1-hydroxy-4-(2-methyl-2H-indazol-4-yl)but-3-yn-2-yl)pyrrolidine-2-carboxamide]: the half-maximal degradation concentration (DC50) at KRAS (G12D) was < 10 nM. The half-inhibitory concentration (IC50) with AsPC-1 cells is < 10 nM.
With `Cc1ncsc1C#C[C@H](CO)NC(=O)[C@@H]1C[C@@H](O)CN1C(=O)[C@H](C(C)C)n1cc(-c2ccc(COc3c(-c4c(C)c(F)cc5[nH]ncc45)c(C4CC4)cc4c(N5C[C@@H]6C[C@H]5CN6)nc(OC5CCOCC5)nc34)cc2)nn1` [Example 59, (2S,4R)-1-((2S)-2-(4-(4-(((4-((1S,4S)-2,5-diazabicyclo[2.2.1]heptan-2-yl)-6-cyclopropyl-7-(6-fluoro-5-methyl-1H-indazol-4-yl)-2-((tetrahydro-2H-pyran-4-yl)oxy)quinazolin-8-yl)oxy)methyl)phenyl)-1H-1,2,3-triazol-1-yl)-3-methylbutanoyl)-4-hydroxy-N—((R)-1-hydroxy-4-(4-methylthiazol-5-yl)but-3-yn-2-yl)pyrrolidine-2-carboxamide], at KRAS (G12D), the DC50 was < 10 nM. For the same compound, the IC50 in the assay on AsPC-1 cells is < 10 nM.
With `CO[C@@H](C)COc1nc(N2C[C@H]3C[C@@H]2CN3)c2cc(C3CC3)c(-c3c(C)c(F)cc4n[nH]cc34)c(OCc3ccc(-c4cn([C@H](C(=O)N5C[C@H](O)C[C@H]5C(=O)N[C@@H](CO)c5ccc(-c6c(C)noc6C)cc5)C(C)C)nn4)cc3)c2n1` (single isomer, unassigned) [Example 6A], the DC50 on KRAS (G12D) was in the range of 10 to 100 nM. The same compound had an IC50 with AsPC-1 cells of 10 to 100 nM.
Compound `CO[C@@H](C)COc1nc(N2C[C@@H]3C[C@H]2CN3)c2cc(C3CC3)c(-c3c(C)c(F)cc4[nH]ncc34)c(OCc3ccc(-c4cn([C@H](C(=O)N5C[C@H](O)C[C@H]5C(=O)N[C@H](C#Cc5cccc(Cl)c5F)CO)C(C)C)nn4)cc3)c2n1` [Example 78, (2S,4R)-1-((2S)-2-(4-(4-(((4-((1S,4S)-2,5-diazabicyclo[2.2.1]heptan-2-yl)-6-cyclopropyl-7-(6-fluoro-5-methyl-1H-indazol-4-yl)-2-((S)-2-methoxypropoxy)quinazolin-8-yl)oxy)methyl)phenyl)-1H-1,2,3-triazol-1-yl)-3-methylbutanoyl)-N—((R)-4-(3-chloro-2-fluorophenyl)-1-hydroxybut-3-yn-2-yl)-4-hydroxypyrrolidine-2-carboxamide] showed a DC50 on KRAS (G12D) of 10 to 100 nM. Further, in the assay with AsPC-1 cells, the half-maximal inhibitory concentration (IC50) was < 10 nM.
